According to patent publication US20240217961A1 (MONOPTEROS THERAPEUTICS, INC., priority 2021, published 2024):

Columns and labels:
Test in all cases: CYP phenotyping, recombinant CYP enzyme incubation
Assay type in all cases: in vitro ADME
human CYP3A5 = human CYP3A5 (Homo sapiens, UniProt P20815)
Experimental: (§1) These incubations were carried out at a concentration of 1 µM and contained 50 pmol/ml of CYP protein. Samples were taken at 0, 5, 10, 15, 20 and 30 minutes. The CLint and t1/2 were calculated from the data.

human CYP2E1 = human CYP2E1 (Homo sapiens, UniProt P05181)
Experimental: as §1

human CYP2B6 = molecular target: T1, human CYP2B6 (Homo sapiens, UniProt P20813)
T1 sequence (P20813 1-491): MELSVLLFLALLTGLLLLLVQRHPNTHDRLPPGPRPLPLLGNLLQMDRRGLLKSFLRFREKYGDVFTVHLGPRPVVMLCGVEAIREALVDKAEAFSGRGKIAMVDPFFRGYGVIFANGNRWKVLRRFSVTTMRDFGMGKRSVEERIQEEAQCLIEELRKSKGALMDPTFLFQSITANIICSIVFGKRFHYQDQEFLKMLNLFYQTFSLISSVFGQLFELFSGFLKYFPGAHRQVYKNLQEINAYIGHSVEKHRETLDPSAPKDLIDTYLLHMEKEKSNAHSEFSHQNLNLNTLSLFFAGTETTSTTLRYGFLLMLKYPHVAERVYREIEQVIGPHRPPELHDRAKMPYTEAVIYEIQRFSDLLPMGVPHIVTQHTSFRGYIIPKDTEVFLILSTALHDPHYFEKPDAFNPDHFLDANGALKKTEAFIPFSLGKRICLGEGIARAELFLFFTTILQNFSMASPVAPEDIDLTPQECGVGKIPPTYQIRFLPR
Experimental: as §1

CYP3A4 = CYP3A4 (Homo sapiens, UniProt P08684)
Experimental: as §1

human CYP2A6 = molecular target: T2, human CYP2A6 (Homo sapiens, UniProt P11509)
T2 sequence (P11509 1-494): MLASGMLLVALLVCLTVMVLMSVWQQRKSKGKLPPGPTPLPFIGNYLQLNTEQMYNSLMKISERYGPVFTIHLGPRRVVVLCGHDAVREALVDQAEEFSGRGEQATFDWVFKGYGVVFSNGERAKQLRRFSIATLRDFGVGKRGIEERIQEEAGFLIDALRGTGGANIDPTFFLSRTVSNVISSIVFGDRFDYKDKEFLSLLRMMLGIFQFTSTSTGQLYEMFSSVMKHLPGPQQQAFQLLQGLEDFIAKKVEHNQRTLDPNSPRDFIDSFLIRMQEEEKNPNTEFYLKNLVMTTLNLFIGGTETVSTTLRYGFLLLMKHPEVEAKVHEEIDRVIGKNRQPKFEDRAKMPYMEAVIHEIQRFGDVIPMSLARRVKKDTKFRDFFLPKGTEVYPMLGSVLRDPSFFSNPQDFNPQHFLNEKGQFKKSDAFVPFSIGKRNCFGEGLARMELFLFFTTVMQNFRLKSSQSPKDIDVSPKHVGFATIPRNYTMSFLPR
Experimental: as §1

CYP2C9 = CYP2C9 (Homo sapiens, UniProt P11712)
Experimental: as §1

CYP2D6 = CYP2D6 (Homo sapiens, UniProt P10635)
Experimental: as §1

CYP1A2 = molecular target: T3, CYP1A2 (Homo sapiens, UniProt P05177)
T3 sequence (P05177 1-516): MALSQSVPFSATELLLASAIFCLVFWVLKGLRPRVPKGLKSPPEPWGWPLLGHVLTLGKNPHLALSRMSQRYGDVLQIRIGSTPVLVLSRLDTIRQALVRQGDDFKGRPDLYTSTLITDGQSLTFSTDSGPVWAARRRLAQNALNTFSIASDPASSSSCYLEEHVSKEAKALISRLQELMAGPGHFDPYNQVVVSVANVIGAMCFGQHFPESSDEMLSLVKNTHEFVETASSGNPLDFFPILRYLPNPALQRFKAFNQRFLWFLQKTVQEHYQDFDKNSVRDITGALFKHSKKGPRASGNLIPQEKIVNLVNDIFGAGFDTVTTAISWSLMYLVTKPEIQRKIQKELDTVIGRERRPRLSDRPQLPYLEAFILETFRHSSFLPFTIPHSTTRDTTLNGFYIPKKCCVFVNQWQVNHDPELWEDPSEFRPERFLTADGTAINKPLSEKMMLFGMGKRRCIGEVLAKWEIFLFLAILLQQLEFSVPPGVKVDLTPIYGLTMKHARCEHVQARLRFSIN
Experimental: as §1

CYP2C19 = CYP2C19 (Homo sapiens, UniProt P33261)
Experimental: as §1

human CYP2E1, sequence (P05181 whole entry): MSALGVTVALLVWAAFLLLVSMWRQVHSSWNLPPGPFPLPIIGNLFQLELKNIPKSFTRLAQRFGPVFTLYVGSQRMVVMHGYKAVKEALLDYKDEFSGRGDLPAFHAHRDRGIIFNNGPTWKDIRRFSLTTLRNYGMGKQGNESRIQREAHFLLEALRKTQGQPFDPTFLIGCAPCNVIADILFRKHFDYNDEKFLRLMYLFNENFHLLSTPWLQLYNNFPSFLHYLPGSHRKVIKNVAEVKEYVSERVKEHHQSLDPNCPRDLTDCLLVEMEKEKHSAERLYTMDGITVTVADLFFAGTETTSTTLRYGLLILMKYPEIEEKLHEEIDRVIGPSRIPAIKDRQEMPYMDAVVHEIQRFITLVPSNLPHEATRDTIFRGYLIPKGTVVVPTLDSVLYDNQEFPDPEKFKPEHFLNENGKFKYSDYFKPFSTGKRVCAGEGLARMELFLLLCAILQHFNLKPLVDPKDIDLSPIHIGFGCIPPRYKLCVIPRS
CYP2D6, sequence (P10635 whole entry): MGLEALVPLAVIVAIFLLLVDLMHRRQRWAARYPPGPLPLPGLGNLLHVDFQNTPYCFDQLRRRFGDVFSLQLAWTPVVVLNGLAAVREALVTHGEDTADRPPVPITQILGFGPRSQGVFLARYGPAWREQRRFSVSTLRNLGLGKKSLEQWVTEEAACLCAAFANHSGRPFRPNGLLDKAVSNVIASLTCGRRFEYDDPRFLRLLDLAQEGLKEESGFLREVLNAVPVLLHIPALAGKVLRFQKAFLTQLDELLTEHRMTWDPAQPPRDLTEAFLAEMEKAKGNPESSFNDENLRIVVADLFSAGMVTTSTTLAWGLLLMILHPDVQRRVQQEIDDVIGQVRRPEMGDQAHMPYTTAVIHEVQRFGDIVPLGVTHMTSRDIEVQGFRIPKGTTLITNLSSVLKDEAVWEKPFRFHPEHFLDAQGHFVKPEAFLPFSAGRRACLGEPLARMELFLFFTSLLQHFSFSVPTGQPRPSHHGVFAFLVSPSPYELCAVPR
CYP2C9, sequence (P11712 whole entry): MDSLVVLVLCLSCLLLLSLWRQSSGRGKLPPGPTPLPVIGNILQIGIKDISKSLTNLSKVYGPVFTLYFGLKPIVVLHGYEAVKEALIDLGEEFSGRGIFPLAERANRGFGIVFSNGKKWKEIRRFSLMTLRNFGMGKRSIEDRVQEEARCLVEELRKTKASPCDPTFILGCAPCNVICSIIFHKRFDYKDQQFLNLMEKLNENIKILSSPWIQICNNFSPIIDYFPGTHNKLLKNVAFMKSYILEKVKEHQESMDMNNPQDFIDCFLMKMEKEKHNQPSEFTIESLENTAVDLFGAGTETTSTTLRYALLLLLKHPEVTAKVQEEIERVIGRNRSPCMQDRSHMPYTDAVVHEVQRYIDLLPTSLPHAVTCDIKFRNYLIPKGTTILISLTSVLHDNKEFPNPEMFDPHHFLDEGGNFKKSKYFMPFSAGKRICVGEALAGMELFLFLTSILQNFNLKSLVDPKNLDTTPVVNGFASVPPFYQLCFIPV
CYP3A4, sequence (P08684 whole entry): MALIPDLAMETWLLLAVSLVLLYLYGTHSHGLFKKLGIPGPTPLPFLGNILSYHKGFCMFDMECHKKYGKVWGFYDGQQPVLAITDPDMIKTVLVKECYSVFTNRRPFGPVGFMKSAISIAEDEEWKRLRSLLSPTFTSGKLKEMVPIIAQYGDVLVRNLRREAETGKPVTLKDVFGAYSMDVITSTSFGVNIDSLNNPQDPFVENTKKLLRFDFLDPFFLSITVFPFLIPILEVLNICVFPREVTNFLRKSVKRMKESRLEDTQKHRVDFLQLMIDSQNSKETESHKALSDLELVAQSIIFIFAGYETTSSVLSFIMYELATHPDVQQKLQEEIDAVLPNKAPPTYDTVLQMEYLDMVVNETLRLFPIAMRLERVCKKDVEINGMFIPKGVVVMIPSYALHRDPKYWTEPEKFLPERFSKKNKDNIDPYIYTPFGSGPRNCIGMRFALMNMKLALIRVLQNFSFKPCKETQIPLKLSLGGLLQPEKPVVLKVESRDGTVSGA
CYP2C19, sequence (P33261 whole entry): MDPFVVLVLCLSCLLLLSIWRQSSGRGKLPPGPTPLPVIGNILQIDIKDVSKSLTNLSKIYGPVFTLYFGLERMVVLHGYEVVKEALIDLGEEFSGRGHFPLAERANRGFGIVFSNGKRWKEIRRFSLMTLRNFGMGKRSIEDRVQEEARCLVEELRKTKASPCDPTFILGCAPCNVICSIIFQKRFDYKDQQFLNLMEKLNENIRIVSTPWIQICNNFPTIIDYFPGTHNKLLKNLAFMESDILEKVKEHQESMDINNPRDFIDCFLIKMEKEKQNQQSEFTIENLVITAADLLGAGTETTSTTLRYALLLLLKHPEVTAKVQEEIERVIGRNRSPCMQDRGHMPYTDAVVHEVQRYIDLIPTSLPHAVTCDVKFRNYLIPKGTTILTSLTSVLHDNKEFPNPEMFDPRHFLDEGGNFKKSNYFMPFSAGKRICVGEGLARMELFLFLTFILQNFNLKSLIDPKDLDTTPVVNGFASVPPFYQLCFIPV
human CYP3A5, sequence (P20815 whole entry): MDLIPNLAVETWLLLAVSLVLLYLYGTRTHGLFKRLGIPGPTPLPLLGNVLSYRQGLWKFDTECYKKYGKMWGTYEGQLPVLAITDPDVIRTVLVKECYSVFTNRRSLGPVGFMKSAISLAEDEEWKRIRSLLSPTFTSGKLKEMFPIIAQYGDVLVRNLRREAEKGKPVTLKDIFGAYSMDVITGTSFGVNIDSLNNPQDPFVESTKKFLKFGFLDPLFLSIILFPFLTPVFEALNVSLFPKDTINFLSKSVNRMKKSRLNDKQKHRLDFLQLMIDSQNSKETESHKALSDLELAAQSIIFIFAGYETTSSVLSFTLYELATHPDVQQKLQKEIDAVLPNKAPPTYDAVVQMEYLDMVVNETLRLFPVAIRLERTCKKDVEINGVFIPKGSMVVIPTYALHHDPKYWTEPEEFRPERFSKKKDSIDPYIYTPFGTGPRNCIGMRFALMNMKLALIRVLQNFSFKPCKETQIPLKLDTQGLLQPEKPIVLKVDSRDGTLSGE

- Contribution % (human CYP3A5): 0.0651%
- contribution % (human CYP3A5): 0.0651%
- Contribution % (human CYP2E1; CYP2E1): 0.00%
- metabolism by recombinant CYP isoform (human CYP2E1; recombinant CYP2E1): not found to substantially metabolize
- CLint (human CYP2E1; recombinant CYP2E1, 1 µM, turnover not significant and > 80% remaining at last time point reported as 0.00): 0.00 μL/min/pmol CYP
- t1/2 (human CYP2E1; recombinant CYP2E1, 1 µM, turnover not significant and > 80% remaining at last time point reported as ∞): ∞
- Contribution % (human CYP2B6; CYP2B6): 0.00%
- metabolism by recombinant CYP isoform (human CYP2B6; recombinant CYP2B6): not found to substantially metabolize
- CLint (human CYP2B6; recombinant CYP2B6, 1 µM, turnover not significant and > 80% remaining at last time point reported as 0.00): 0.00 μL/min/pmol CYP
- t1/2 (human CYP2B6; recombinant CYP2B6, 1 µM, turnover not significant and > 80% remaining at last time point reported as ∞): ∞
- Contribution % (CYP3A4; CYP3A4): 50.3%
- contribution % (CYP3A4; CYP3A4): 50.3%
- half-life at 1 µM (CYP3A4; human, recombinant CYP3A4, 1 µM, 50 pmol/ml of CYP protein, mean ± SD, n = 3): 23.5 ± 2.35 min
- CLint (CYP3A4; recombinant CYP3A4, 1 µM, 50 pmol/ml of CYP protein, mean ± SD, n = 3): 0.593 ± 0.0562 μL/min/pmol CYP
- CLint (CYP3A4; recombinant CYP3A4, 1 µM, 50 pmol/ml CYP protein): 0.593 µL/min/pmol
- Contribution % (human CYP2A6; CYP2A6): 0.00%
- metabolism by recombinant CYP isoform (human CYP2A6; recombinant CYP2A6): not found to substantially metabolize
- CLint (human CYP2A6; recombinant CYP2A6, 1 µM, turnover not significant and > 80% remaining at last time point reported as 0.00): 0.00 μL/min/pmol CYP
- t1/2 (human CYP2A6; recombinant CYP2A6, 1 µM, turnover not significant and > 80% remaining at last time point reported as ∞): ∞
- Contribution % (CYP2C9; CYP2C9): 8.24%
- contribution % (CYP2C9; CYP2C9): 8.24%
- half-life at 1 µM (CYP2C9; human, recombinant CYP2C9, 1 µM, turnover observed for one or two replicates only, t1/2 reported as minimum): 127 min
- CLint (CYP2C9; recombinant CYP2C9, 1 µM, turnover observed for one or two replicates only, Clint reported as maximum): 0.109 μL/min/pmol CYP
- CLint (CYP2C9; recombinant CYP2C9, turnover observed in one of the three replicates): 0.109 µL/min/pmol
- Contribution % (CYP2D6; CYP2D6): 11.0%
- contribution % (CYP2D6; CYP2D6): 11.0%
- CYP isoform participating in metabolism (CYP2D6; based on expressed human cytochrome P450s and liver microsomes with specific inhibitors): CYP2D6 is major CYP isoform
- half-life at 1 µM (CYP2D6; human, recombinant CYP2D6, 1 µM, 50 pmol/ml of CYP protein, mean ± SD, n = 3): 9.94 ± 0.819 min
- CLint (CYP2D6; recombinant CYP2D6, 1 µM, 50 pmol/ml of CYP protein, mean ± SD, n = 3): 1.40 ± 0.112 μL/min/pmol CYP
- CLint (CYP2D6; recombinant CYP2D6, 1 µM, 50 pmol/ml CYP protein): 1.40 µL/min/pmol
- Contribution % (CYP1A2; CYP1A2): 9.61%
- contribution % (CYP1A2; CYP1A2): 9.61%
- half-life at 1 µM (CYP1A2; human, recombinant CYP1A2, 1 µM, 50 pmol/ml of CYP protein, mean ± SD, n = 3): 51.5 ± 5.99 min
- CLint (CYP1A2; recombinant CYP1A2, 1 µM, 50 pmol/ml of CYP protein, mean ± SD, n = 3): 0.272 ± 0.0339 μL/min/pmol CYP
- CLint (CYP1A2; recombinant CYP1A2, 1 µM, 50 pmol/ml CYP protein): 0.272 µL/min/pmol
- Contribution % (CYP2C19; CYP2C19): 8.01%
- contribution % (CYP2C19; CYP2C19): 8.01%
- half-life at 1 µM (CYP2C19; human, recombinant CYP2C19, 1 µM, 50 pmol/ml of CYP protein, mean ± SD, n = 3): 25.9 ± 1.68 min
- CLint (CYP2C19; recombinant CYP2C19, 1 µM, 50 pmol/ml of CYP protein, mean ± SD, n = 3): 0.537 ± 0.0361 μL/min/pmol CYP
- CLint (CYP2C19; recombinant CYP2C19, 1 µM, 50 pmol/ml CYP protein): 0.537 µL/min/pmol
SMILES: CN1CCC[C@H](CN2c3ccccc3Sc3ccccc32)C1 [(S)-mepazine, (S)-10-((1-methylpiperidin-3-yl)methyl)-10H-phenothiazine]
